# Results as given in patent US20140323501A1, “AMINO-PROPYLENE-GLYCOL DERIVATIVES, PREPARATION METHOD AND PHARMACEUTICAL COMPOSITION AND USE THEREOF” (INSTITUTE OF MATERIA MEDICA, CHINESE ACADEMY OF MEDICAL …, priority 2011, published 2014).
# Tests used:
# [1] = test system: SD rat peripheral blood lymphocyte counts; experiment: Effect of S1P1 receptor agonists on rat vein (peripheral) blood lymphocyte counts; type: in vivo; conditions: Table 3, 10 mg/Kg intragastric; for LYM 0 h: before administration; for Δ %: largest decrease of lymphocyte count vs 0 h
# Description: 10 mg of drugs were measured and placed in a mortar. After 4 mL of 5‰ CMC-Na were added, homogenous suspension was prepared in the mortar (one drop of twain-80 was added to help dissolving). Dosage: 10 mg/Kg, dose volume: 0.4 mL/100 g, intragastric administration.
# Every medicated group was assigned three rats.
# After the experimental animals stable in the clean environment for 24 h, 10 μL of blood was withdrawn via tail vein and diluted into 2 mL of diluents quickly. […] Then the prepared drugs were administered intragastrically to the animals. […] The animals were killed after 24 h.
# SD rat heart rate = experiment: Effect of S1P1 receptor agonists on rat heart rate; type: in vivo; design: heart rate 0: unit not given beside the values; conditions: Table 4; for heart rate 0.5 h / heart rate 1 h / heart rate 3 h / heart rate 6 h / heart rate 8 h / heart rate 24 h / heart rate 0: intragastric; for heart rate 0: time 0, before administration
SMILES,LYM 0 h [1],LYM 1 h [1],LYM 2 h [1],LYM 4 h [1],LYM 6 h [1],LYM 8 h [1],LYM 12 h [1],LYM 23 h [1],Δ % [1],Δ % = the percentage of change of rat heart rate before and after administration (SD rat heart rate),heart rate 0.5 h (SD rat heart rate),heart rate 1 h (SD rat heart rate),heart rate 3 h (SD rat heart rate),heart rate 6 h (SD rat heart rate),heart rate 8 h (SD rat heart rate),heart rate 24 h (SD rat heart rate),heart rate 0 (SD rat heart rate)
NC(CO)(CO)CCc1ccc(Oc2ccc(-c3coc(C4CC4)n3)cc2)cc1 [Syl955],7.40 ± 2.18 ×10^9/L,6.27 ± 0.78 ×10^9/L,6.87 ± 0.90 ×10^9/L,6.83 ± 1.26 ×10^9/L,8.33 ± 2.70 ×10^9/L,6.53 ± 1.42 ×10^9/L,2.90 ± 0.95 ×10^9/L,4.93 ± 1.07 ×10^9/L,60.81%,21.72%,373.00,384.75,338.25,335.50,351.50,353.90,428.63
CCCc1nc(-c2ccc(Oc3ccc(C(O)CC(N)(CO)CO)cc3)cc2)co1 (stereo not shown) [Syl961],7.90 ± 2.46 ×10^9/L,8.57 ± 2.55 ×10^9/L,6.40 ± 0.98 ×10^9/L,6.33 ± 2.25 ×10^9/L,5.83 ± 1.88 ×10^9/L,3.93 ± 1.78 ×10^9/L,3.67 ± 1.68 ×10^9/L,2.63 ± 0.31 ×10^9/L,66.67%,11.64%,382.56,364.33,379.45,344.36,363.08,363.27,389.75
CC(C)c1nc(-c2ccc(Oc3ccc(C(O)CC(N)(CO)CO)cc3)cc2)co1 (stereo not shown) [Syl962],8.03 ± 1.15 ×10^9/L,5.60 ± 0.90 ×10^9/L,5.83 ± 1.54 ×10^9/L,6.27 ± 1.42 ×10^9/L,3.63 ± 0.38 ×10^9/L,2.67 ± 0.67 ×10^9/L,3.10 ± 0.56 ×10^9/L,2.43 ± 0.59 ×10^9/L,69.70%,13.58%,397.13,374.88,358.58,343.63,337.00,331.89,390.00
NC(CO)(CO)CC(O)c1ccc(Oc2ccc(-c3coc(C4CC4)n3)cc2)cc1 (stereo not shown) [Syl963],6.90 ± 0.95 ×10^9/L,4.67 ± 1.50 ×10^9/L,5.07 ± 2.10 ×10^9/L,6.67 ± 0.81 ×10^9/L,4.57 ± 1.29 ×10^9/L,4.13 ± 0.84 ×10^9/L,4.20 ± 2.52 ×10^9/L,2.43 ± 0.91 ×10^9/L,64.73%,4.58%,388.38,378.36,377.36,366.88,362.50,369.05,395.50
CCc1nc(-c2ccc(Sc3ccc(CCC(N)(CO)CO)cc3)cc2)co1 [Syl974],6.55 ± 0.21 ×10^9/L,4.63 ± 0.61 ×10^9/L,5.27 ± 1.27 ×10^9/L,5.20 ± 0.61 ×10^9/L,5.77 ± 0.40 ×10^9/L,4.67 ± 0.61 ×10^9/L,2.23 ± 0.59 ×10^9/L,4.47 ± 1.36 ×10^9/L,65.9%,4.81%,382.63,388.00,396.19,368.56,364.11,363.13,381.50
